Source: publication PMC11881559 (Antimicrobial Agents and Chemotherapy, 2025)
“And” between values parts separate entries of the source, which are not always exact repeats. Equal entries are not always repeated.

Legend:
wild-type strain = conditions: in vitro, corrected by the plasma protein binding rate; cited from earlier work
[1] = Food-effect study, plasma PK; conditions: for AUC0-t / AUC0-∞ / Cmax / MRT0-∞: mean (%CV); for t1/2: mean ± SD
[2] = Multiple ascending dose (MAD) study, plasma PK; conditions: for t1/2: mean ± SD
[3] = rats; preclinical animal studies; cited from earlier work
[4] = Exposure-response analysis of adverse events (logistic regression); design: species or system human
Excerpt: For safety analysis, we also employed an exposure-response analysis method that included four binary outcomes: any adverse drug reaction (ADR), hypertriglyceridemia, hyperuricemia, and elevated creatinine levels. The exposure levels were derived by simulating individual parameter estimates from a population PK model ([23]), which generated dense sampling drug concentration-time curves. The noncompartmental analysis was subsequently performed using the PKNCA package in R software ver. 4.3 to calculate the area under the concentration-time curve over 24 h (AUC0-24) using the trapezoidal method and the maximum blood drug concentration within 24 h (Cmax).
logit(P(Yi=1))=β0+β1⋅log(Xi)
In this context, Xi represents the exposure (AUC0-24 and Cmax) of the ith subject, β0 denotes the intercept, and β1 indicates the coefficient for exposure. P(Yi = 1) represents the probability of AE occurrence, with logit referring to the logistic transformation.

O=C(NC1CCCC1)C(=O)[C@H](C[C@@H]1CCNC1=O)NC(=O)[C@@H]1[C@H]2CCC[C@H]2CN1C(=O)[C@@H](NC(=O)C(F)(F)F)C1CCCCC1 [RAY1216, leritrelvir]
antiviral 90% effective concentration (EC90) (wild-type strain): 0.165 µg/mL | Tmax ([1]; 500 mg alongside 100 mg ritonavir, fasting): 2.5 h | Tmax ([1]; 500 mg alongside 100 mg ritonavir, high-fat food): 3.0 h | AUC0-t ([1]; 800 mg, Fast): 22,700 (38.9) ng·h/mL | AUC0-∞ ([1]; 800 mg, Fast): 23,000 (38.9) ng·h/mL | Cmax ([1]; 800 mg, Fast): 4,760 (31.6) ng/mL | MRT0-∞ ([1]; 800 mg, Fast): 7.01 (26.4) h | t1/2 ([1]; 800 mg, Fast): 7.72 ± 4.46 h | Tmax ([1]; 800 mg, Fast, median (range)): 1.5 (0.5, 3.0) h | AUC0-t ([1]; 800 mg, Fed): 34,100 (28) ng·h/mL | AUC0-∞ ([1]; 800 mg, Fed): 34,200 (27.9) ng·h/mL | Cmax ([1]; 800 mg, Fed): 8,510 (27.6) ng/mL | MRT0-∞ ([1]; 800 mg, Fed): 5.96 (22.2) h | t1/2 ([1]; 800 mg, Fed): 7.08 ± 3.61 h | Tmax ([1]; 800 mg, Fed, median (range)): 3.0 (1.0, 6.0) h | Tmax delayed by ([1]; 800 mg, feeding vs fasting condition): 1.5 h | plasma concentration reached a steady state by ([2]; 400 mg TID): ≤ 2 days | AUC0-t ([2]; 400 mg TID, Day 1, mean (%CV)): 9,720 (36) ng·h/mL | AUC0-tau ([2]; 400 mg TID, Day 1, mean (%CV)): 10,600 (30.4) ng·h/mL | AUC0-∞ ([2]; 400 mg TID, Day 1, mean (%CV)): 13,300 (32) ng·h/mL | Cmax ([2]; 400 mg TID, Day 1, mean (%CV)): 3,450 (37.2) ng/mL | MRT0-∞ ([2]; 400 mg TID, Day 1, mean (%CV)): 3.93 (16.5) h | t1/2 ([2]; 400 mg TID, Day 1): 2.31 ± 0.465 h | Tmax ([2]; 400 mg TID, Day 1, median (range)): 1.5 (1.0, 2.0) h | AUC0-t ([2]; 400 mg TID, Day 5, mean (%CV)): 15,400 (32.5) ng·h/mL | AUC0-tau ([2]; 400 mg TID, Day 5, mean (%CV)): 10,000 (36) ng·h/mL | AUC0-∞ ([2]; 400 mg TID, Day 5, mean (%CV)): 15,500 (32.2) ng·h/mL | Cmax ([2]; 400 mg TID, Day 5, mean (%CV)): 2,700 (32.3) ng/mL | Cmin,ss ([2]; 400 mg TID, Day 5, mean (%CV)): 382 ng/mL and 382 (44.9) ng/mL | MRT0-∞ ([2]; 400 mg TID, Day 5, mean (%CV)): 6.23 (18.9) h | t1/2 ([2]; 400 mg TID, Day 5): 9.61 ± 2.26 h | Tmax ([2]; 400 mg TID, Day 5, median (range)): 1.5 (1.0, 3.0) h | Tmax ([2]; 400 mg TID, continuous administration): 1.5 h | plasma concentrations reached a steady state by ([2]; 300, 500 or 700 mg with 100 mg ritonavir BID): ≤ 2 days | no-observed-adverse-effect level (NOAEL) [3]: 900 mg/kg/day | exposure-response relationship of ADRs, hypertriglyceridemia, hyperuricemia, elevated creatinine with exposure (AUC0-24, Cmax) [4]: no significant dose-response relationship
